Numbers after ± are expanded uncertainties.
Assay: molar heat capacity at constant pressure
Settings: 101.33 kPa, Crystal, Vacuum adiabatic calorimetry

O=C[C@H](O)[C@@H](O)[C@H](O)CO [D-xylose]
Settings	molar heat capacity at constant pressure [J/K/mol]
40 K	26.03 ± 0.093
40.53 K	26.51 ± 0.073
42.93 K	27.98 ± 0.075
45 K	29.36 ± 0.1
45.13 K	29.46 ± 0.078
47.76 K	31.18 ± 0.08
50 K	32.58 ± 0.11
50.2 K	32.51 ± 0.082
53.12 K	34.56 ± 0.086
55 K	35.68 ± 0.11
55.82 K	36.43 ± 0.088
59.09 K	38.3 ± 0.091
60 K	38.82 ± 0.12
62.21 K	40.2 ± 0.094
65 K	41.94 ± 0.12
65.77 K	42.39 ± 0.097
69.15 K	44.37 ± 0.1
70 K	45.05 ± 0.13
73.12 K	46.67 ± 0.1
75 K	48.14 ± 0.14
76.88 K	49.05 ± 0.11
80 K	51.21 ± 0.14
81.26 K	51.82 ± 0.11
85 K	54.27 ± 0.15
85.51 K	54.66 ± 0.12
90 K	57.3 ± 0.26
90.3 K	57.7 ± 0.2
95 K	60.32 ± 0.26
95.15 K	60.59 ± 0.2
100 K	63.33 ± 0.26
100.35 K	63.68 ± 0.2
105.25 K	66.61 ± 0.21
110 K	69.28 ± 0.27
110.61 K	69.55 ± 0.21
115.43 K	72.27 ± 0.21
120 K	75.18 ± 0.28
120.64 K	75.36 ± 0.21
125.54 K	78.61 ± 0.22
130 K	81.02 ± 0.28
130.77 K	81.56 ± 0.22
135.74 K	84.75 ± 0.22
140 K	86.83 ± 0.29
140.87 K	87.47 ± 0.22
145.76 K	90.11 ± 0.23
150 K	92.61 ± 0.29
151.03 K	93.15 ± 0.23
155.98 K	95.92 ± 0.23
160 K	98.36 ± 0.3
161.11 K	99.11 ± 0.23
166.15 K	102.13 ± 0.23
170 K	104.1 ± 0.3
171.25 K	104.92 ± 0.24
176.34 K	107.5 ± 0.24
180 K	109.83 ± 0.31
181.48 K	110.56 ± 0.24
186.59 K	113.51 ± 0.24
190 K	115.56 ± 0.32
191.69 K	116.09 ± 0.25
196.81 K	119.53 ± 0.25
200 K	121.29 ± 0.32
201.94 K	122.16 ± 0.25
207.17 K	125.24 ± 0.25
210 K	127.02 ± 0.33
212.26 K	128.07 ± 0.25
217.5 K	130.91 ± 0.26
220 K	132.76 ± 0.33
222.61 K	134.51 ± 0.26
227.74 K	137.35 ± 0.26
230 K	138.51 ± 0.34
232.87 K	140.48 ± 0.26
237.95 K	142.93 ± 0.27
240 K	144.27 ± 0.34
243.02 K	146.31 ± 0.27
248.07 K	148.9 ± 0.27
250 K	150.04 ± 0.35
253.18 K	152.43 ± 0.27
258.24 K	154.94 ± 0.28
260 K	155.83 ± 0.36
263.22 K	158.02 ± 0.28
268.36 K	160.56 ± 0.28
270 K	161.64 ± 0.36
273.15 K	163.47 ± 0.36
273.41 K	163.59 ± 0.28
278.46 K	166.47 ± 0.28
280 K	167.46 ± 0.37
283.51 K	169.47 ± 0.29
288.47 K	172.37 ± 0.29
290 K	173.3 ± 0.37
293.61 K	175.31 ± 0.29
298.15 K	178.08 ± 0.38
298.67 K	177.87 ± 0.29
300 K	179.16 ± 0.38
303.66 K	181.61 ± 0.3
